Reference: patent US20080319000A1, “Use of 3,1IB-Cis-Dihydrotetrabenazine for the Treatment of Symptoms of Huntingtons Disease” (CAMBRIDGE LABORATORIES (IRELAND) LIMITED, priority 2005, published 2008)

Legend:
Male Sprague-Dawley rats = assay: Spontaneous locomotor activity in rats (sedative properties); format: in vivo; conditions: for Inactivity Duration / Large movements Duration / Large movements Occurrence: rats, 20 min period, mean ± SEM n=12
Protocol: A study was carried out in rats to determine whether the dihydrotetrabenazine isomers of the invention have sedative properties. […] Male Sprague-Dawley rats, (Charles River Laboratories, Saint-Germain/L'Arbresle, France), weighing 200-250 g at the beginning of the study, were used for the studies. […] The rats were allowed to acclimatize to their conditions for at least five days before commencement of the study. The rats received food ([…], France, ref. 811002) and water (tap water in water bottle) ad libitum. Solutions of each test compound in corn oil were freshly prepared on the day of the experiment. Haloperidol was prepared in hydroxyethylcellulose, 0.5% in deionized water. Either the vehicle or the test compounds were administered as a single dose (0.3, 1, 3 and 10 mg/kg, 2 mL/kg i.p.). The reference compound haloperidol (1 mg/kg) was administered i.p. […] The animals were placed in plexiglass cages under a video camera in a room with low light intensity (maximum 50 lux). At forty five minutes and 3 hours after administration, locomotor activity was determined during 20 minute periods using a video image analyzer (Videotrack, View Point, France). […] The number and duration of ambulatory movements and duration of inactivity was measured. At the end of the locomotor activity measurement (45 minutes and 3 hours), palpebral closure and arousal were be scored as follows in the plexiglass cage: […] Image tracking was performed using a video camera placed above the plexiglass cage, recording overall locomotor activity. […] The results were expressed as the means ±SEMs of the 12 individual values. Statistical analyses were carried out using ANOVA (one way) and Dunnett's t-test and with the non parametric test of Kruskal-Wallis followed by a Mann & Whitney U-test for the sedation cotation. A p value of p<0.05 was taken as indicating significance. Group size n=12 Group 1: Reference, haloperidol (1 mg/kg i.p.) Group 2: Vehicle control group (2 ml/kg i.p.) Group 3: tetrabenazine (0.3 mg/kg i.p) Group 4: tetrabenazine (1 mg/kg i.p) Group 5: tetrabenazine (3 mg/kg i.p) Group 6: tetrabenazine (10 mg/kg i.p) Group 7: […]

[1] = molecular target: T1, monoamine oxidase isoform B (Homo sapiens, UniProt P27338); assay: Monoamine oxidase B inhibition; format: biochemical
T1 sequence (P27338 1-520): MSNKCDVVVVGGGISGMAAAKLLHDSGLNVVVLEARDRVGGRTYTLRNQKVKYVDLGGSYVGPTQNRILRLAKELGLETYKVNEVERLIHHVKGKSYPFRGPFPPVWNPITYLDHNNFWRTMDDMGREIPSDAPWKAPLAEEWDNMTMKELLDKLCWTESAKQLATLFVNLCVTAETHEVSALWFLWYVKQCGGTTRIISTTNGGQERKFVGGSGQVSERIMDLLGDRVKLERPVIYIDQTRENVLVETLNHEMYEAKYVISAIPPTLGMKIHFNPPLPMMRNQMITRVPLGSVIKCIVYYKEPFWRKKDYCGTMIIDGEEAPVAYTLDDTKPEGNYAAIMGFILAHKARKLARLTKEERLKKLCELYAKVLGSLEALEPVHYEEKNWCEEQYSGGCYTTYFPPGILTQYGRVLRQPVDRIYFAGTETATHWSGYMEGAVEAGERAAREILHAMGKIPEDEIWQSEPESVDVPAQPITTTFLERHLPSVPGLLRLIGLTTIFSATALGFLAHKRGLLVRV

[2] = molecular target: 5-hydroxytryptamine isoform 1d (Homo sapiens, UniProt P28221); assay: 5-hydroxytryptamine 1d inhibition; format: binding
[3] = molecular target: Dopamine Transporter (DAT) (Homo sapiens, UniProt Q01959); assay: Dopamine Transporter (DAT) binding
adrenergic receptors = assay: Adrenergic receptor inhibition; format: binding
[4] = molecular target: serotonin transporter protein SERT (Homo sapiens, UniProt P31645); assay: Serotonin transporter SERT inhibition; format: binding
[5] = 0.3 mg/kg i.p., 45 minutes after administration
[6] = 0.3 mg/kg i.p., 3 hours after administration
[7] = 1 mg/kg i.p., 45 minutes after administration
[8] = 1 mg/kg i.p., 3 hours after administration
[9] = 3 mg/kg i.p., 45 minutes after administration
[10] = 3 mg/kg i.p., 3 hours after administration
[11] = 10 mg/kg i.p., 45 minutes after administration
[12] = 10 mg/kg i.p., 3 hours after administration

serotonin transporter protein SERT, sequence (P31645 whole entry): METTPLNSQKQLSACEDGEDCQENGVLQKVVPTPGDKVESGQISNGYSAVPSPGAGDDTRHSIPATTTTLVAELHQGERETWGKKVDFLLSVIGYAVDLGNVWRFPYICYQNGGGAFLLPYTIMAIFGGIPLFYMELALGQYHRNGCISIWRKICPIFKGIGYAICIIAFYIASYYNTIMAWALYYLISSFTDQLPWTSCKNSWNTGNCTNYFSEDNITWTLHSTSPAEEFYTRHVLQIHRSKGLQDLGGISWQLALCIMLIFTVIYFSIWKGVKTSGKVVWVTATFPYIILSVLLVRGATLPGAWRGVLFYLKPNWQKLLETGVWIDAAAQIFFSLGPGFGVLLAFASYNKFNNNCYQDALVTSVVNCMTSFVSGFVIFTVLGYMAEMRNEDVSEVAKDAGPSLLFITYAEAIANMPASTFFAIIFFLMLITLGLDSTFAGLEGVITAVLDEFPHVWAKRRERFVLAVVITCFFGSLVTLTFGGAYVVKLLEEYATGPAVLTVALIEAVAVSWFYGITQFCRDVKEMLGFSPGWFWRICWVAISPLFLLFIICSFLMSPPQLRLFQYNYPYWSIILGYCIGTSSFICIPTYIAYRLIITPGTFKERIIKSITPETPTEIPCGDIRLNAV
5-hydroxytryptamine isoform 1d, sequence (P28221 whole entry, canonical isoform): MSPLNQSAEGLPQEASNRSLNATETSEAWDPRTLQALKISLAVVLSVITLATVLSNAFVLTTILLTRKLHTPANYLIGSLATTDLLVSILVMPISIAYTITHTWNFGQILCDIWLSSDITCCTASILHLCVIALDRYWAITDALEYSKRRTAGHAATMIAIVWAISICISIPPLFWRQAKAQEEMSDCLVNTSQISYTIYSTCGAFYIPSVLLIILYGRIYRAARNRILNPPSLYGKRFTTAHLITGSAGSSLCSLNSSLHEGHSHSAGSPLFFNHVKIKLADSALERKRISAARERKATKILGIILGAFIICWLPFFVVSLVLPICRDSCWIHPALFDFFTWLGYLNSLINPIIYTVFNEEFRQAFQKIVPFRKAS
Dopamine Transporter (DAT), sequence (Q01959 whole entry, species assumed): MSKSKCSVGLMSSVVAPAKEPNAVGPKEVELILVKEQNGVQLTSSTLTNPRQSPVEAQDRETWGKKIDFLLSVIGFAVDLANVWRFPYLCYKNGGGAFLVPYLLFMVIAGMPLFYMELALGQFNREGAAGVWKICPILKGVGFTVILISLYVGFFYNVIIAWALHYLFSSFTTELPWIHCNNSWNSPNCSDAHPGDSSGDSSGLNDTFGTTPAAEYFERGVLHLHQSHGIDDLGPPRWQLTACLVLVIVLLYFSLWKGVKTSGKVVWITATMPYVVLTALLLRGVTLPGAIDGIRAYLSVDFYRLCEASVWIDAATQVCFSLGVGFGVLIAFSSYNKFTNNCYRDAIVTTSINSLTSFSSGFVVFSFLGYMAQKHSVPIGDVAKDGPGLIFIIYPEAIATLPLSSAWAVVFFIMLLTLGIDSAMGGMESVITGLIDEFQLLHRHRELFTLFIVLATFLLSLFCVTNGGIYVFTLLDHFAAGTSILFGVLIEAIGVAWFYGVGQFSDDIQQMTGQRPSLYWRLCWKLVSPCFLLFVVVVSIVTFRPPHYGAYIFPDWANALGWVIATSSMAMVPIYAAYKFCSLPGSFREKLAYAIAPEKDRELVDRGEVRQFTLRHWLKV

## COc1cc2c(cc1OC)[C@H]1C[C@H](O)[C@@H](CC(C)C)CN1CC2 (single isomer, unassigned) [Isomer B]
Male Sprague-Dawley rats; locomotor studies carried out on rats
  sedative effect: no sedative effects were observed
Male Sprague-Dawley rats; [5]
  Inactivity Duration: 346.1 ± 36.9 s
  Large movements Duration: 72.0 ± 9.6 s
  Large movements Occurrence: 268 ± 36
Male Sprague-Dawley rats; [6]
  Inactivity Duration: 566.4 ± 44.3 s
  Large movements Duration: 28.9 ± 9.2 s
  Large movements Occurrence: 101 ± 29
Male Sprague-Dawley rats; [7]
  Inactivity Duration: 334.0 ± 23.2 s
  Large movements Duration: 87.0 ± 7.6 s
  Large movements Occurrence: 297 ± 22
Male Sprague-Dawley rats; [8]
  Inactivity Duration: 525.8 ± 28.6 s
  Large movements Duration: 34.5 ± 6.2 s
  Large movements Occurrence: 125 ± 18
Male Sprague-Dawley rats; [9]
  Inactivity Duration: 342.2 ± 33.3 s
  Large movements Duration: 89.1 ± 12.4 s
  Large movements Occurrence: 313 ± 38
Male Sprague-Dawley rats; [10]
  Inactivity Duration: 530.5 ± 38.0 s
  Large movements Duration: 31.1 ± 6.5 s
  Large movements Occurrence: 113 ± 17
Male Sprague-Dawley rats; [11]
  Inactivity Duration: 333.1 ± 26.9 s
  Large movements Duration: 84.0 ± 11.2 s
  Large movements Occurrence: 298 ± 37
Male Sprague-Dawley rats; [12]
  Inactivity Duration: 515.0 ± 53.0 s
  Large movements Duration: 30.9 ± 6.4 s
  Large movements Occurrence: 120 ± 26
Male Sprague-Dawley rats; rats, 0.3, 1, 3 and 10 mg/kg i.p., 45 minutes and 3 hours after administration
  sedative effect: no sedative effects at any time
[1]
  inhibitory activity against monoamine oxidase isoform B: no inhibitory activity
[2]
  inhibitory activity against 5-hydroxytryptamine isoform 1d: no inhibitory activity
[3]
  Dopamine Transporter (DAT) binding activity: lack Dopamine Transporter (DAT) binding activity
Adrenergic receptors
  inhibition of the adrenergic receptors: either weakly active or inactive
[4]
  inhibition of the serotonin transporter protein SERT: potent inhibitors
